ChEMBL document CHEMBL5649169 (ChemMedChem, 2018)

Assays:
[1] = biological target: Wee1-like protein kinase (Homo sapiens) (UniProt P30291)
[2] = biological target: Dipeptidyl peptidase 1 (Homo sapiens) (UniProt P53634)
[3] = biological target: Dual specificity mitogen-activated protein kinase kinase 1 (Homo sapiens) (UniProt Q02750)
Vimentin (Homo sapiens) = Vimentin (Homo sapiens) (UniProt P08670)
[4] = biological target: Annexin A6 (Homo sapiens) (UniProt P08133)
[5] = biological target: ER lumen protein-retaining receptor 2 (Homo sapiens) (UniProt P33947)
[6] = biological target: Small ribosomal subunit protein eS19 (Homo sapiens) (UniProt P39019)
[7] = biological target: Inhibitor of nuclear factor kappa-B kinase subunit epsilon (Homo sapiens) (UniProt Q14164)
[8] = biological target: Alanine--tRNA ligase, cytoplasmic (Homo sapiens) (UniProt P49588)
[9] = biological target: Histone H1.5 (Homo sapiens) (UniProt P16401)
[10] = biological target: Gamma-tubulin complex component 2 (Homo sapiens) (UniProt Q9BSJ2)
[11] = biological target: THUMP domain-containing protein 1 (Homo sapiens) (UniProt Q9NXG2)
[12] = biological target: DDB1- and CUL4-associated factor 7 (Homo sapiens) (UniProt P61962)
[13] = biological target: Transmembrane protein 43 (Homo sapiens) (UniProt Q9BTV4)
[14] = biological target: Eukaryotic translation initiation factor 4B (Homo sapiens) (UniProt P23588)
[15] = biological target: 5'-3' exoribonuclease 2 (Homo sapiens) (UniProt Q9H0D6)
Homo sapiens [16] = species on record: Homo sapiens
[17] = biological target: Ras-related protein Rab-14 (Homo sapiens) (UniProt P61106)
[18] = biological target: Protein RCC2 (Homo sapiens) (UniProt Q9P258)
[19] = biological target: ATP synthase F(1) complex subunit gamma, mitochondrial (Homo sapiens) (UniProt P36542)
[20] = biological target: Transgelin-2 (Homo sapiens) (UniProt P37802)
[21] = biological target: Large ribosomal subunit protein eL15 (Homo sapiens) (UniProt P61313)
[22] = biological target: Trifunctional enzyme subunit alpha, mitochondrial (Homo sapiens) (UniProt P40939)
[23] = biological target: Mitogen-activated protein kinase 15 (Homo sapiens) (UniProt Q8TD08)
[24] = biological target: Exosome complex component 10 (Homo sapiens) (UniProt Q01780)
Ataxin-10 (Homo sapiens) = Ataxin-10 (Homo sapiens) (UniProt Q9UBB4)
[25] = biological target: Adenosylhomocysteinase (Homo sapiens) (UniProt P23526)
Homo sapiens [26] = species on record: Homo sapiens; remark: listed apart in the source
[27] = biological target: Microtubule-associated protein RP/EB family member 2 (Homo sapiens) (UniProt Q15555)
[28] = biological target: Mitogen-activated protein kinase kinase kinase 5 (Homo sapiens) (UniProt Q99683)
[29] = biological target: Growth hormone-inducible transmembrane protein (Homo sapiens) (UniProt Q9H3K2)
[30] = biological target: Small ribosomal subunit protein uS17m (Homo sapiens) (UniProt Q9Y2R5)
Homo sapiens [31] = species on record: Homo sapiens; remark: listed apart in the source
[32] = biological target: Spectrin alpha chain, non-erythrocytic 1 (Homo sapiens) (UniProt Q13813)
[33] = biological target: Protein kinase C alpha type (Homo sapiens) (UniProt P17252)
[34] = biological target: Peroxiredoxin-2 (Homo sapiens) (UniProt P32119)
[35] = biological target: Dual specificity protein kinase CLK2 (Homo sapiens) (UniProt P49760)
[36] = biological target: 14-3-3 protein theta (Homo sapiens) (UniProt P27348)
[37] = biological target: 5'-AMP-activated protein kinase subunit beta-2 (Homo sapiens) (UniProt O43741)
[38] = biological target: Protein VAC14 homolog (Homo sapiens) (UniProt Q08AM6)
[39] = biological target: Galactocerebrosidase (Homo sapiens) (UniProt P54803)
[40] = biological target: Peptidyl-prolyl cis-trans isomerase FKBP1A (Homo sapiens) (UniProt P62942)
[41] = biological target: NBAS subunit of NRZ tethering complex (Homo sapiens) (UniProt A2RRP1)
[42] = biological target: Mitotic checkpoint protein BUB3 (Homo sapiens) (UniProt O43684)
[43] = biological target: Serine/threonine-protein phosphatase 6 regulatory subunit 1 (Homo sapiens) (UniProt Q9UPN7)
[44] = biological target: Peripherin (Homo sapiens) (UniProt P41219)
[45] = biological target: RNA-binding protein FXR1 (Homo sapiens) (UniProt P51114)
[46] = biological target: RuvB-like 1 (Homo sapiens) (UniProt Q9Y265)
Note: assay method not described here.

Sequence of Mitogen-activated protein kinase 15 (Homo sapiens) (Q8TD08 whole entry): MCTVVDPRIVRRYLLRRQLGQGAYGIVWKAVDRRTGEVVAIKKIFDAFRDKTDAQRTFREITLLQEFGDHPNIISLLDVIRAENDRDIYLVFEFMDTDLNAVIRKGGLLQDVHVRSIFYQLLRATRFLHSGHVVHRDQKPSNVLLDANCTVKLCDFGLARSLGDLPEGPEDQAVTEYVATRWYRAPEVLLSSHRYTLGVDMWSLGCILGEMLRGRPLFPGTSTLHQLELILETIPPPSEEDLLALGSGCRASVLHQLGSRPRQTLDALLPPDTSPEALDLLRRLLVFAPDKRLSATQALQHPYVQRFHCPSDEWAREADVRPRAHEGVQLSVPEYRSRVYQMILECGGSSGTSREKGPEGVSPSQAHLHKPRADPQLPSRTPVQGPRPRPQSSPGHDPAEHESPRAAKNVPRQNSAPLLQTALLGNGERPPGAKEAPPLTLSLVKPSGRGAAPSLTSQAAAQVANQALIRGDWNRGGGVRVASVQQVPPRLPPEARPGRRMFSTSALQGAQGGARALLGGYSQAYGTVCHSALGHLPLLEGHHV
Sequence of 14-3-3 protein theta (Homo sapiens) (P27348 whole entry): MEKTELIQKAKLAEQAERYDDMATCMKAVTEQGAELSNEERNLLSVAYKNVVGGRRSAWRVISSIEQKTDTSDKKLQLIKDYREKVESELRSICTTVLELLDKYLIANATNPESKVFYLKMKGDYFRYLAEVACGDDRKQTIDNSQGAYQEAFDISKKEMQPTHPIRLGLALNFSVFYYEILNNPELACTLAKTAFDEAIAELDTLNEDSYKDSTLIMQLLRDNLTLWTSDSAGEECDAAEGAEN
Sequence of Protein RCC2 (Homo sapiens) (Q9P258 whole entry): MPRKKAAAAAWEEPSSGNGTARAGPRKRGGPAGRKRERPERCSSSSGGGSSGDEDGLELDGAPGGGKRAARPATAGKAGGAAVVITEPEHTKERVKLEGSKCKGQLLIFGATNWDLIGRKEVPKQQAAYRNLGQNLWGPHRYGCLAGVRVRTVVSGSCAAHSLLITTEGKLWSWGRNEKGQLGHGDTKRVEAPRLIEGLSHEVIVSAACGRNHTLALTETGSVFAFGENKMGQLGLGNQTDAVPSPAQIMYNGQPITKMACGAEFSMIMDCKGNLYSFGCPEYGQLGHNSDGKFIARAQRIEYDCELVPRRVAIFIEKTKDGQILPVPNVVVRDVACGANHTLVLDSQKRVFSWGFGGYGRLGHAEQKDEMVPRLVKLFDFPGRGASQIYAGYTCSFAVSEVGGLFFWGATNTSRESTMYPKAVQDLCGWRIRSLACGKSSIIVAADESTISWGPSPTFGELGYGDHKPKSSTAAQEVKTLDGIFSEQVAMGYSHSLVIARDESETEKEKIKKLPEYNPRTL
Sequence of Microtubule-associated protein RP/EB family member 2 (Homo sapiens) (Q15555 whole entry): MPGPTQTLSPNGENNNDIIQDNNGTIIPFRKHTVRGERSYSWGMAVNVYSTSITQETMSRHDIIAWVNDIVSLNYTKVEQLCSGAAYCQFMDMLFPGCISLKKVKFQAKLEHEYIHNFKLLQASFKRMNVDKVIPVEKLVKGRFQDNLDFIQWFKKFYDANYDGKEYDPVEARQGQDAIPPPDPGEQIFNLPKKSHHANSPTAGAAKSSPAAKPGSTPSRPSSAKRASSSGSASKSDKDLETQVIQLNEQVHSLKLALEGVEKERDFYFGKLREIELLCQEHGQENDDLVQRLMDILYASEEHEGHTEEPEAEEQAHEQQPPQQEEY
Sequence of Wee1-like protein kinase (Homo sapiens) (P30291 whole entry, looked up): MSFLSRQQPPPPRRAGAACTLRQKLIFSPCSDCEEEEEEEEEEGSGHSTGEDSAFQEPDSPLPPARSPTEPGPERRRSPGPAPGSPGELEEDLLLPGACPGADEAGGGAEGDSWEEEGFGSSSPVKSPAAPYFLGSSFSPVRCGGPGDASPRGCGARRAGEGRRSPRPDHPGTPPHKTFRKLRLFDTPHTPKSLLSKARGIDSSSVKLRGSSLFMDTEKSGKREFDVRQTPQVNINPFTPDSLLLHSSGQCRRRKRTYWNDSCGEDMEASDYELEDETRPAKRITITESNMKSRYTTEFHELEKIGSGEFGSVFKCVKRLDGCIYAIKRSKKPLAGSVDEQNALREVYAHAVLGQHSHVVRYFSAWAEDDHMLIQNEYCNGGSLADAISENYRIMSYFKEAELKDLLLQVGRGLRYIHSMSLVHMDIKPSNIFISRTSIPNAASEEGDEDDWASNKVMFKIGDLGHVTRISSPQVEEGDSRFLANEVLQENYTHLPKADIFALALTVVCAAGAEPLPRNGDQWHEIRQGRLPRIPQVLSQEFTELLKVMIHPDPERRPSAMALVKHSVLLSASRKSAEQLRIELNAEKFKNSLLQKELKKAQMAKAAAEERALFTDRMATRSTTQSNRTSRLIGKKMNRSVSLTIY
Sequence of Serine/threonine-protein phosphatase 6 regulatory subunit 1 (Homo sapiens) (Q9UPN7 whole entry): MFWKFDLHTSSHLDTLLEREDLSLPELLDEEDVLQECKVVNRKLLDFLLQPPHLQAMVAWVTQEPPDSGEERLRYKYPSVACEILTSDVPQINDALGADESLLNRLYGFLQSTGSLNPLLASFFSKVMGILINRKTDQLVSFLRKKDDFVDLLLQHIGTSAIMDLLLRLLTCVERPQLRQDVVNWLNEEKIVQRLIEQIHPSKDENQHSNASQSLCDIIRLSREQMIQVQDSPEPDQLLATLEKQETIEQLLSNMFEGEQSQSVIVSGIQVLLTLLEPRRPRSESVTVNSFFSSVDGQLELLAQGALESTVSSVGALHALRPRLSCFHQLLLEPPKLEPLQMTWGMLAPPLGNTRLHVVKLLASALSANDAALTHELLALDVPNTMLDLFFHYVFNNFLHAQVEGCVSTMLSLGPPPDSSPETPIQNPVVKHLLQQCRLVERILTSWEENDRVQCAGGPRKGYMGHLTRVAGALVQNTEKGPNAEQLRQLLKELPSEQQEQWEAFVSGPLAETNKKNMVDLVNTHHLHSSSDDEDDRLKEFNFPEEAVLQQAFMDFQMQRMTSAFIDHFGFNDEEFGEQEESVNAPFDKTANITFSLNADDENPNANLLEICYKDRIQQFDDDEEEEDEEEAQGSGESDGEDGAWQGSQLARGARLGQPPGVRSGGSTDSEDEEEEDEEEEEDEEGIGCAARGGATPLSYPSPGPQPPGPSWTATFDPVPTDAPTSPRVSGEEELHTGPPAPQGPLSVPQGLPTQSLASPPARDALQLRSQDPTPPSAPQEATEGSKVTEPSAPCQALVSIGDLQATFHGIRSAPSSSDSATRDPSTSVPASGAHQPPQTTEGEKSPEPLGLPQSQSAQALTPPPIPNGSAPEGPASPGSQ
Sequence of 5'-3' exoribonuclease 2 (Homo sapiens) (Q9H0D6 whole entry): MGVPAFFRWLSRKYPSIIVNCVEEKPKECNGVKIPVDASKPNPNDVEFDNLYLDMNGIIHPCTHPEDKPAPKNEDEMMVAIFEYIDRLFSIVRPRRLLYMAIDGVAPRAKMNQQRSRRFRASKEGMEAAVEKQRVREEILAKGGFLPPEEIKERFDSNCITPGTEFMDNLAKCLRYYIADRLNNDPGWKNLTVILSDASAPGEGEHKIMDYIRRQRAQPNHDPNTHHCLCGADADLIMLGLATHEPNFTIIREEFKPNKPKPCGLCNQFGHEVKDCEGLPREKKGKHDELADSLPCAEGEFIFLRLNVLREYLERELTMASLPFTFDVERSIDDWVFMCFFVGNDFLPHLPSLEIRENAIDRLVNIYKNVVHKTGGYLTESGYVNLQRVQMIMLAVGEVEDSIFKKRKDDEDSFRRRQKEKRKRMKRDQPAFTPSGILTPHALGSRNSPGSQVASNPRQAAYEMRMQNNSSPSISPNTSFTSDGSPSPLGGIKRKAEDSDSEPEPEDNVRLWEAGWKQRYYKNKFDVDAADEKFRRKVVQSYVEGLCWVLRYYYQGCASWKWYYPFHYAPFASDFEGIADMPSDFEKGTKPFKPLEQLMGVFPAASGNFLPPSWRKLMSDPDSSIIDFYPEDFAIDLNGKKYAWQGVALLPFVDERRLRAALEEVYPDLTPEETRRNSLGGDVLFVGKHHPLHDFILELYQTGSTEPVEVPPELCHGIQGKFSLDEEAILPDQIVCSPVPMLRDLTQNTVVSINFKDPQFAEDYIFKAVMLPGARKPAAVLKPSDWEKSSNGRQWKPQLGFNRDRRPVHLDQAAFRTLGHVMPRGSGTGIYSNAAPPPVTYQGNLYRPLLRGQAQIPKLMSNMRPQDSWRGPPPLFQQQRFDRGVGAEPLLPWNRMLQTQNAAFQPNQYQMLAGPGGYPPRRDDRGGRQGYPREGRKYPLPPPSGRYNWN
Sequence of 5'-AMP-activated protein kinase subunit beta-2 (Homo sapiens) (O43741 whole entry): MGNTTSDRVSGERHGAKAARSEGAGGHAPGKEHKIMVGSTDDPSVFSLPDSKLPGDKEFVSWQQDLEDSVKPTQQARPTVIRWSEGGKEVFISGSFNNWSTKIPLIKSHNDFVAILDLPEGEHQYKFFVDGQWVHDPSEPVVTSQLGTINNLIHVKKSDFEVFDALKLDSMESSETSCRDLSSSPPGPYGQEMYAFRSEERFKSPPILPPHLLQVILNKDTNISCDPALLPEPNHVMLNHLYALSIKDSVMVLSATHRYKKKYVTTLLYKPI
Sequence of DDB1- and CUL4-associated factor 7 (Homo sapiens) (P61962 whole entry): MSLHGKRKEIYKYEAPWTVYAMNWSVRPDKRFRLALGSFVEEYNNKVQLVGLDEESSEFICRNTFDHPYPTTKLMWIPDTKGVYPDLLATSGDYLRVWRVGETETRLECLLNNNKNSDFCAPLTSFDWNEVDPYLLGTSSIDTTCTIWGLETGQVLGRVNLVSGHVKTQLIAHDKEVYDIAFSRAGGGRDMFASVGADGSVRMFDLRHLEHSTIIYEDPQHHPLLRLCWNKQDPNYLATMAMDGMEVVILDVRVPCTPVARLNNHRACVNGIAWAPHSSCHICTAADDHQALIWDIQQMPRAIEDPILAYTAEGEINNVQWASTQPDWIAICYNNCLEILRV
Sequence of ER lumen protein-retaining receptor 2 (Homo sapiens) (P33947 whole entry): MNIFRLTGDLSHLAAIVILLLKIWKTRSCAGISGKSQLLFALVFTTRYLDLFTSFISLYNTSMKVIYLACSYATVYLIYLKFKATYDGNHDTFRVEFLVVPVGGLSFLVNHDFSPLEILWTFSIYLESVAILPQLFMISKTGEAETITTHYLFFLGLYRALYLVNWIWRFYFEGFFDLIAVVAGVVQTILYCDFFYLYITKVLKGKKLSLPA

Cc1ccc(C(=O)Nc2cccc(C(F)(F)F)c2)cc1Nc1nc(-c2cccnc2)nc2c1cnn2C
ED50 [1]: 0.0311 µM | ED50 [2]: 0.0113 µM | ED50 [3]: 0.00367 µM | ED50 (Vimentin (Homo sapiens)): 1.03 µM | ED50 [4]: 9 µM | ED50 [5]: 0.109 µM | ED50 [6]: 0.645 µM | ED50 [7]: 0.123 µM | ED50 [8]: 0.00373 µM | ED50 [9]: 4 µM | ED50 [10]: 0.16 µM | ED50 [11]: 101 µM | ED50 [12]: 1.12 µM | ED50 [13]: 0.00615 µM | ED50 [14]: 0.449 µM | ED50 [15]: 0.547 µM | ED50 (Homo sapiens [16]): 8.11 µM | ED50 [17]: 2.88 µM | ED50 [18]: 92.2 µM | ED50 [19]: 3.13 µM | ED50 [20]: 3.15 µM | ED50 [21]: 0.425 µM | ED50 [22]: 0.877 µM | ED50 [23]: 0.026 µM | ED50 [24]: 0.0037 µM | ED50 (Ataxin-10 (Homo sapiens)): 0.103 µM | ED50 [25]: 4.94 µM | ED50 (Homo sapiens [26]): 1.29 µM | ED50 [27]: 0.0302 µM | ED50 [28]: 0.121 µM | ED50 [29]: 0.00891 µM | ED50 [30]: 0.421 µM | ED50 (Homo sapiens [31]): 3.52 µM | ED50 [32]: 0.08 µM | ED50 [33]: 0.151 µM | ED50 [34]: 8 µM | ED50 [35]: 117 µM | ED50 [36]: 0.0211 µM | ED50 [37]: 0.0527 µM | ED50 [38]: 0.648 µM | ED50 [39]: 3.18 µM | ED50 [40]: 94 µM | ED50 [41]: 0.0417 µM | ED50 [42]: 0.00528 µM | ED50 [43]: 10.4 µM | ED50 [44]: 0.178 µM | ED50 [45]: 0.00957 µM | ED50 [46]: 4.25 µM

Cc1ccc(C(=O)Nc2cccc(C(F)(F)F)c2)cc1Nc1nc(-c2cccnc2)nc2nn(C)cc12
ED50 [1]: 2.63 µM | ED50 [2]: 1.88 µM | ED50 [3]: 0.0574 µM | ED50 (Vimentin (Homo sapiens)): 1.62 µM | ED50 [4]: 0.0326 µM | ED50 [5]: 0.051 µM | ED50 [6]: 0.199 µM | ED50 [7]: 9.31 µM | ED50 [8]: 36.5 µM | ED50 [9]: 1000 µM | ED50 [10]: 0.0401 µM | ED50 [11]: 75 µM | ED50 [12]: 0.184 µM | ED50 [13]: 10.6 µM | ED50 [14]: 0.0001 µM | ED50 [15]: 0.0114 µM | ED50 (Homo sapiens [16]): 13.1 µM | ED50 [17]: 4.44 µM | ED50 [18]: 37.9 µM | ED50 [19]: 2.43 µM | ED50 [20]: 0.102 µM | ED50 [21]: 0.0592 µM | ED50 [22]: 0.0595 µM | ED50 [23]: 0.0373 µM | ED50 [24]: 348 µM | ED50 (Ataxin-10 (Homo sapiens)): 1470 µM | ED50 [25]: 0.0533 µM | ED50 (Homo sapiens [26]): 0.0274 µM | ED50 [27]: 35 µM | ED50 [28]: 0.125 µM | ED50 [29]: 0.0192 µM | ED50 [30]: 0.0305 µM | ED50 (Homo sapiens [31]): 43.2 µM | ED50 [32]: 0.12 µM | ED50 [33]: 0.00201 µM | ED50 [34]: 6.92 µM | ED50 [35]: 6.69 µM | ED50 [36]: 1.35 µM | ED50 [37]: 0.0168 µM | ED50 [38]: 3.84 µM | ED50 [39]: 8.73 µM | ED50 [40]: 0.00568 µM | ED50 [41]: 22.4 µM | ED50 [42]: 0.0679 µM | ED50 [43]: 0.00142 µM | ED50 [44]: 1.74 µM | ED50 [45]: 0.00197 µM | ED50 [46]: 8.41 µM
